# Columns and labels:
# [1] = system: MB231Br (breast cancer metastasis to brain); assay: Drug screening of MB231Br tumor foci on OBSCs; type: cell-based, human
# [2] = system: LN229 (established GBM line); assay: Drug screening of LN229 tumor foci on OBSCs; type: cell-based, human
# In short: (§1)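 Tumor foci (25,000 cells) were seeded onto organotypic brain slice cultures 2 h after slicing, two per slice; one day later six drug concentrations were added to the medium or X-ray was applied. Bioluminescence was read 3 days after treatment, normalized to day-one fluorescence and to untreated controls.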
# [3] = system: U373WT (wild-type established GBM line); assay: Drug screening of U373WT tumor foci on OBSCs; type: cell-based, human; conditions: U373 WT on OBSCs
# In short: as §1
# [4] = system: U373KO (RAD18 knockout of U373WT via CRISPR); assay: Drug screening of U373KO tumor foci on OBSCs; type: cell-based, human; conditions: U373 KO on OBSCs
# In short: as §1
# [5] = system: GBM8 (high-passage patient-derived GBM line); assay: Drug screening of GBM8 tumor foci on OBSCs; type: cell-based, human
# In short: as §1
# [6] = system: MS21 (low-passage patient-derived GBM line); assay: Drug screening of MS21 tumor foci on OBSCs; type: cell-based, human
# In short: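 Luciferase-expressing tumor cells seeded onto organotypic brain slice cultures; one day later treated with six drug concentrations in the medium, or X-irradiation. Bioluminescence read three days after treatment, normalised to day-one fluorescence and untreated controls. Dose-response values by linear interpolation; DSS combines weighted tumor-kill versus slice-toxicity parameters (−100 to 100).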
# [7] = system: PDIPG (low-passage pediatric patient-derived line); assay: Drug screening of PDIPG tumor foci on OBSCs; type: cell-based, human
# In short: as §1
# [8] = system: PIS patient tumor tissue (intracranial sarcoma); assay: Drug screening of uncultured patient tumor tissue PIS on OBSCs; type: cell-based, human; conditions: Homo sapiens; PIS on OBSCs; dose required to kill 90% of the tumor
# In short: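 Uncultured patient tumour tissue, transduced with mCherry-FLuc lentivirus, engrafted on organotypic brain slice cultures (OBSCs); six drug concentrations or X-ray dosing given one day after seeding, n = 4 foci per concentration. Bioluminescence with luciferin read three days post-treatment, normalised to day one and untreated controls; drug sensitivity score combines weighted therapeutic-window parameters versus OBSC toxicity (−100 to 100).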
# [9] = system: MMG-II patient tumor tissue (WHO grade II meningioma, multiple tumors); assay: Drug screening of uncultured patient tumor tissue MMG-II on OBSCs; type: cell-based; conditions: Homo sapiens, dose required to kill 90% of the tumor
# Protocol: Tumor cells were seeded onto OBSCs 2h after slicing as described above. One day after tumor seeding, six concentrations of each drug were diluted in the media underneath each culture insert, or XRad was applied using an X-Rad 320 Precision X-ray machine (n = 4 tumor foci per concentration; n ≥ 24 tumor foci per drug per cell line). Three days after treatment, the bioluminescence of live tumor cells was measured using an AMI optical imager (Spectral Instruments) and dose-response curves were generated. Tumor survival was normalized to day one tumor fluorescence and compared to an untreated control group.
# To engraft onto OBSCs, the cryopreserved/thawed or fresh brain tumor tissue was filtered through a 100 μm cell strainer. Each 50 mg of tissue was transfected with 1mL mcherry-FLuc Lentivirus at 1.5e7 vg/ml with 1μL polybrene for 4h at 37°C. After incubation, the brain tumor tissue was washed with PBS three times to remove the residual virus and reconstituted in PBS with a final volume of 150 μL. […] The viability of the patient tissue was measured by an AMI optical imaging system with the addition of 1.5 mg/mL luciferin underneath the culture insert. […]
# For DSS parameters 1–6, therapeutic windows were calculated by comparing OBSC toxicity and tumor response at the doses where tumor kill passed through the DSS parameter (Table S1 and S3). For DSS parameter 7, the therapeutic window was calculated by comparing the slopes through the tumor EC50 and the OBSC tox EC50. For DSS parameter 8, the therapeutic window was calculated by comparing the areas under tumor kill and OBSC tox curves. Normalized therapeutic window ratios for DSS parameters 1–8 within each drug-tumor-OBSC interaction were calculated in the following manner: within each window, values ranged from +1 to −1, where values approaching +1 signify increasing tumor kill relative to normal tissue toxicity, and values approaching −1 indicate agents where tumors remained highly viable while toxicity to the normal OBSC tissue was elevated. […]
# [10] = area under the dose-response curve, trapezoidal rule
# [11] = dose required to kill 10% of the tumor
# [12] = Homo sapiens, U373 MG, dose required to kill 50% of the tumor
# [13] = Homo sapiens, U373 MG, dose required to kill 90% of the tumor
# [14] = Homo sapiens, U373 MG, dosed day 1, survival via bioluminescence day 4, linear interpolation
smiles,measurement,setting,value
CC[C@]1(O)C[C@H]2CN(CCc3c([nH]c4ccccc34)[C@@](C(=O)OC)(c3cc4c(cc3OC)N(C=O)[C@H]3[C@@](O)(C(=O)OC)[C@H](OC(C)=O)[C@]5(CC)C=CCN6CC[C@]43[C@@H]65)C2)C1 [Vincristine],EC50,"[1]; Homo sapiens, MB231BR on OBSCs, dose required to kill 50% of the tumor",> 10 µM
same,EC90,"[1]; Homo sapiens, MB231BR on OBSCs, dose required to kill 90% of the tumor",> 10 µM
same,IC50,"[1]; Homo sapiens, MB231Br on OBSCs, dosed day 1, survival via bioluminescence day 4, linear interpolation",> 10 µM
same,Killing at highest dose,[1]; MB231BR on OBSCs,7.00E-02 fraction of tumor population killed
same,AUC,"[1]; MB231BR on OBSCs, area under the dose-response curve, trapezoidal rule",1.02E+01
same,Slope,"[1]; MB231BR on OBSCs, slope through the EC50",-1.89E-02
same,Killing at highest dose,[2],4.10E-01 fraction of tumor population killed
same,EC50,"[2]; Homo sapiens, LN-229, dose required to kill 50% of the tumor",> 10 µM
same,EC90,"[2]; Homo sapiens, LN-229, dose required to kill 90% of the tumor",> 10 µM
same,IC50,"[2]; Homo sapiens, LN-229, dosed day 1, survival via bioluminescence day 4, linear interpolation",> 10 µM
same,AUC,[2]; [10],6.37E+00
same,EC10,[2]; [11],0.00667 µM
same,EC25,[2]; dose required to kill 25% of the tumor,0.418 µM
same,Slope,[2]; slope through the EC50,-8.89E-03
same,EC50,[3]; [12],> 10 µM
same,EC90,[3]; [13],> 10 µM
same,IC50,[3]; [14],> 10 µM
same,Killing at highest dose,[3],-6.60E-01 fraction of tumor population killed
same,AUC,[3]; [10],1.36E+01
same,EC10,[3]; [11],0.82 µM
same,Slope,[3]; slope through the EC50,5.78E-02
same,EC50,[4]; [12],> 10 µM
same,EC90,[4]; [13],> 10 µM
same,IC50,[4]; [14],> 10 µM
same,Killing at highest dose,[4],-7.40E-01 fraction of tumor population killed
same,AUC,[4]; [10],1.89E+01
same,Killing at highest dose,[5]; GBM8 on OBSCs,1.00E+00 fraction of tumor population killed
same,AUC,"[5]; GBM8 on OBSCs, area under the dose-response curve, trapezoidal rule",2.38E-01
same,EC10,"[5]; GBM8 on OBSCs, dose required to kill 10% of the tumor",0.00435 µM
same,EC25,"[5]; GBM8 on OBSCs, dose required to kill 25% of the tumor",0.0129 µM
same,EC75,"[5]; GBM8 on OBSCs, dose required to kill 75% of the tumor",0.0843 µM
same,Slope,"[5]; GBM8 on OBSCs, slope through the EC50",-7.00E+00
same,EC90,[5]; Homo sapiens,0.26 µM
same,EC50,"[5]; Homo sapiens, GBM8 on OBSCs, dose required to kill 50% of the tumor, read-out: EC50",0.0486 µM
same,IC50,"[5]; Homo sapiens, GBM8 on OBSCs, dosed day 1, survival via bioluminescence day 4, linear interpolation, read-out: IC50",0.05 µM
same,EC90,[6]; Homo sapiens,> 10 µM
same,EC50,"[6]; Homo sapiens, MS21 on OBSCs, dose required to kill 50% of the tumor, read-out: EC50",4.6 µM
same,IC50,"[6]; Homo sapiens, MS21 on OBSCs, dosed day 1, survival via bioluminescence day 4, linear interpolation, read-out: IC50",4.6 µM
same,Killing at highest dose,[6]; MS21 on OBSCs,5.30E-01 fraction of tumor population killed
same,AUC,"[6]; MS21 on OBSCs, area under the dose-response curve, trapezoidal rule",5.22E+00
same,EC10,"[6]; MS21 on OBSCs, dose required to kill 10% of the tumor",0.00526 µM
same,EC25,"[6]; MS21 on OBSCs, dose required to kill 25% of the tumor",0.172 µM
same,Slope,"[6]; MS21 on OBSCs, slope through the EC50",-5.56E-03
same,EC90,[7]; Homo sapiens,> 10 µM
same,EC50,"[7]; Homo sapiens, PDIPG on OBSCs, dose required to kill 50% of the tumor, read-out: EC50",> 10 µM
same,IC50,"[7]; Homo sapiens, PDIPG on OBSCs, dosed day 1, survival via bioluminescence day 4, linear interpolation, read-out: IC50",> 10 µM
same,Killing at highest dose,[7]; PDIPG on OBSCs,4.86E-01 fraction of tumor population killed
same,AUC,"[7]; PDIPG on OBSCs, area under the dose-response curve, trapezoidal rule",6.36E+00
same,EC10,"[7]; PDIPG on OBSCs, dose required to kill 10% of the tumor",0.242 µM
same,EC25,"[7]; PDIPG on OBSCs, dose required to kill 25% of the tumor",0.406 µM
same,Slope,"[7]; PDIPG on OBSCs, slope through the EC50",-2.32E-02
same,EC90,[8],> 10 µM
same,EC90,[9],> 10 µM

# Source: article PMC10313921, “A living ex vivo platform for functional, personalized brain cancer diagnosis” (Cell Reports Medicine, 2023)
